One experiment concerns the target T1, hNLRP3 inflammasome (Homo sapiens, UniProt Q96P20).
T1 construct: endogenous in cells; host or cells: THP-1 cells, PMA-differentiated
The experiment in a line: Agonistic effect on the expression of IL-1β in THP-1 cells after PMA-induced differentiation (HTRF). The format is cell-based. To be noted: IL-1β level, PMA-differentiated THP-1 cells, 6 hours. In a few lines: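 THP-1 cells differentiated with 1 μM PMA for 24 h, then replated at 1×10^5 cells/well in RPMI 1640 with 2% FBS. Compounds added for 6 h at 37 °C, 5% CO2. Supernatant IL-1β measured by HTRF; EC50 from four-parameter variable-slope fit.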
On the technique in general: Time-resolved FRET reads energy transfer from a long-lived donor to a nearby acceptor.

Another experiment concerns THP1-defNLRP3 cells. The experiment in a line: Agonistic effect on the expression of IL-1β in NLRP3 deficient THP1 cells (THP1-defNLRP3) after PMA-induced differentiation (HTRF). In kind it is cell-based, human. Conditions: Homo sapiens, THP-1; IL-1β level, PMA-differentiated NLRP3 deficient THP1 cells, 6 hours; highest test concentration 30 μM; read-out: hNLRP3 EC50 (μM) (THP-1defNLRP3). The text has this:
Experimental Example 2: Agonistic Effect of the Compound of the Invention on the Expression of IL-1β in NLRP3 Deficient THP1 Cells (THP1-defNLRP3 Cells) after PMA-Induced Differentiation
In this test, a HTRF detection method was used to test the effect of the compound of the invention on the level of IL-1β in THP1-defNLRP3 cells to evaluate the specificity of the agonistic effect of the compound on hNLRP3 inflammasome or hNLRP3 inflammasome pathway.
Reagents: as described in Experimental Example 1
Cell: THP1-defNLRP3 (InvivoGen)
Kit: IL-1β assay kit (CISBIO)
1) THP1-defNLRP3 cells in a logarithmic growth phase were seeded in a T75 culture flask at a density of 5×10^5 cells/well, and cultured in a cell incubator at 37° C., 5% CO2 for 24 hours, and then 1 μM PMA was used to induce THP1-defNLRP3 suspension cells to become adherent macrophages. The medium was RPMI 1640 containing 10% heat-inactivated FBS and 0.05 mM β-mercaptoethanol.
2) The cells were induced and cultured for 24 hours. Then the adherent cells were trypsinized and centrifuged at 1000 rpm for 5 min. The supernatant was removed, and the cells were resuspended to a density of 2×10^6 cells/mL in RPMI 1640 medium containing 2% heat-inactivated FBS. 50 μL/well of the cell resuspension was taken and spread on a 96-well plate such that the number of cells in each well was 1×10^5.
3) An appropriate amount of 10 mM DMSO solution of the compound to be tested was taken and diluted to a concentration of 2× test concentration with RPMI 1640 medium containing 2% heat-inactivated FBS. 50 μL/well of the dilution was added to the cells in the 96-well plate, and mixed well. The plate was incubated in a cell incubator at 37° C., 5% CO2 for 6 hours. The supernatant was collected, and the level of IL-1β was measured in accordance with the instructions of the IL-1β detection kit.
4) EC50 was fitted by the GraphPad software log(agonist) vs. response—Variable slope four-parameter method.

Where a name gives a salt, the structure may show the parent alone. Where only a bound is given, the exact number is not on record here.

T1 sequence (Q96P20 whole entry): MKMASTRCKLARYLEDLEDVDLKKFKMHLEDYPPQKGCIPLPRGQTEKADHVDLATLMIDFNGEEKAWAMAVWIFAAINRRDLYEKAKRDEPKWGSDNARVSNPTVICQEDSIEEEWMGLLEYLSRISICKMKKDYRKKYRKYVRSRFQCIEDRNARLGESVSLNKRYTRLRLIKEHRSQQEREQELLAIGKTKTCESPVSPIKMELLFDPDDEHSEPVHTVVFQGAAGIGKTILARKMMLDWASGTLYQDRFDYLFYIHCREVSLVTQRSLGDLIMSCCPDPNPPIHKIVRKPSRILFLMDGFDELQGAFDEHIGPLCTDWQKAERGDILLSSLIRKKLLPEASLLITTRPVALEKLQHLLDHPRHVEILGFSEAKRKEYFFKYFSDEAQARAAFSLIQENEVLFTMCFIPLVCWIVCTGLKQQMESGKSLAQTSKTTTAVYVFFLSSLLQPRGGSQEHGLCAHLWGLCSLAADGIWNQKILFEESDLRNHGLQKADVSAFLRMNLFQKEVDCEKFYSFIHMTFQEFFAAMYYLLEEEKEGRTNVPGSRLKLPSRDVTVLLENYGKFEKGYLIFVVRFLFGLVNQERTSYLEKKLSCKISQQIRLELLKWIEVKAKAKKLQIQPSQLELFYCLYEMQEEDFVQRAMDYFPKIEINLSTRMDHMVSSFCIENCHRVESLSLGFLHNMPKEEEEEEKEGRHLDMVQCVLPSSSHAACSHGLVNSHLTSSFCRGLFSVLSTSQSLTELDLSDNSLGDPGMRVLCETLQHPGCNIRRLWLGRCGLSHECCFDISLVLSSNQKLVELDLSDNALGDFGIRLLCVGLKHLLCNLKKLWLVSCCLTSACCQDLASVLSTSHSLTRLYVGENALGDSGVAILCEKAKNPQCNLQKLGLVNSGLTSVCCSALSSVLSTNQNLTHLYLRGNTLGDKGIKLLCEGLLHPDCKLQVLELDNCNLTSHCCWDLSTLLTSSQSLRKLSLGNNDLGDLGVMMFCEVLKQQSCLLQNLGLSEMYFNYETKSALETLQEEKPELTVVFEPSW

In the case of `Nc1cc(NCCCO)c2sc(-c3ccccc3)cc2n1` [Compound 93, 3-((5-amino-2-phenylthieno[3,2-b]pyridin-7-yl)amino)-1-propanol], the EC50 – broadly, the concentration that produces a half-maximal response – on hNLRP3 inflammasome was 0.18 µM; with THP1-defNLRP3 cells, greater than 30 µM.

Take `CC1(CNc2cc(N)nc3cc(-c4ccn[nH]4)sc23)COC1` [Compound 121, N^7-((3-methyloxetan-3-yl)methyl)-2-(1H-pyrazol-5-yl)thieno[3,2-b]pyridine-5,7-diamine]: the figures for the EC50 at hNLRP3 inflammasome and in the experiment on THP1-defNLRP3 cells were 0.03 µM and greater than 30 µM, respectively.

In the case of `Cn1cc(CNc2cc(N)nc3cc(-c4ccn[nH]4)sc23)cn1` [Compound 106, N^7-(1-methyl-1H-pyrazol-4-yl)methyl-2-(1H-pyrazol-5-yl)thieno[3,2-b]pyridine-5,7-diamine], the figures for the EC50 on hNLRP3 inflammasome and in the experiment on THP1-defNLRP3 cells were 0.04 µM and greater than 30 µM, respectively.

Consider `Cc1cccc(-c2cc3nc(N)cc(NCCCO)c3s2)n1` [Compound 91, 3-((5-amino-2-(6-methylpyridin-2-yl)thieno[3,2-b]pyridin-7-yl)amino)-1-propanol], for which the EC50 on hNLRP3 inflammasome was 0.11 µM; in the experiment with THP1-defNLRP3 cells, greater than 30 µM.

For the compound `Nc1cc(NCC(F)(F)c2ccccn2)c2sc(-c3ccn[nH]3)cc2n1` [Compound 97, N^7-(2,2-difluoro-2-(pyridin-2-yl)ethyl)-2-(1H-pyrazol-5-yl)thieno[3,2-b]pyridine-5,7-diamine], the EC50 at hNLRP3 inflammasome is 0.03 µM; in the experiment with THP1-defNLRP3 cells it was greater than 30 µM.

As for `CC1(C)CCN(c2cc(N)nc3cc(-c4ccn[nH]4)sc23)CC1` [Compound 173], the EC50 on hNLRP3 inflammasome is 0.1 µM; with THP1-defNLRP3 cells, greater than 30 µM.

Turning to `Nc1cc(N[C@@H]2CC[C@@H](O)C2)c2sc(-c3ccn[nH]3)cc2n1` [Compound 30s, (1R,3R)-3-((5-amino-2-(1H-pyrazol-5-yl)thieno[3,2-b]pyridin-7-yl)amino)cyclopentanol hydrochloride], the EC50 on hNLRP3 inflammasome is 0.02 µM; with THP1-defNLRP3 cells, greater than 30 µM.

With `Nc1cc(NC2COC2)c2sc(-c3ccn[nH]3)cc2n1` [Compound 112, N^7-(oxetan-3-yl)-2-(1H-pyrazol-5-yl)thieno[3,2-b]pyridine-5,7-diamine], the EC50 on hNLRP3 inflammasome was 0.28 µM; in the experiment with THP1-defNLRP3 cells, greater than 30 µM.

Consider `C[C@@H](CO)Nc1cc(N)nc2cc(-c3ccn[nH]3)sc12` [Compound 108, (S)-2-((5-amino-2-(1H-pyrazol-5-yl)thieno[3,2-b]pyridin-7-yl)amino)propanol], for which the EC50 on hNLRP3 inflammasome was 0.34 µM; with THP1-defNLRP3 cells, greater than 30 µM.

In the case of `Nc1cc(N2CCCC(O)C2)c2sc(-c3ccn[nH]3)cc2n1` (centres unmarked) [Compound 166], the EC50 at hNLRP3 inflammasome is 0.34 µM; in the experiment with THP1-defNLRP3 cells it was greater than 30 µM.

For the compound `Cc1c(-c2cc[nH]n2)sc2c(NCC3CC3)cc(N)nc12` [Compound 156], the EC50 is 5.01 µM on hNLRP3 inflammasome and greater than 30 µM in the experiment on THP1-defNLRP3 cells.

On to `Cn1ccc(CNc2cc(N)nc3cc(-c4ccn[nH]4)sc23)n1` [Compound 60, N^7-(1-methyl-1H-pyrazol-3-yl)methyl-2-(1H-pyrazol-5-yl)thieno[3,2-b]pyridine-5,7-diamine], for which the figures for the concentration giving a half-maximal response (EC50) at hNLRP3 inflammasome and with THP1-defNLRP3 cells were 0.1 µM and greater than 30 µM, respectively.

As for `Nc1cc(NCCNC(=O)C2CC2)c2sc(-c3ccn[nH]3)cc2n1` [Compound 64], the EC50 at hNLRP3 inflammasome was 0.05 µM; in the experiment on THP1-defNLRP3 cells, greater than 30 µM.

Take `COC1(C)CCN(c2cc(N)nc3cc(-c4ccn[nH]4)sc23)CC1` [Compound 165]: the EC50 on hNLRP3 inflammasome is 0.03 µM; in the experiment with THP1-defNLRP3 cells, greater than 30 µM.

Consider `Nc1cc(N2CCN(C3CC3)CC2)c2sc(-c3ccn[nH]3)cc2n1` [Compound 163], for which the EC50 at hNLRP3 inflammasome was 0.27 µM; with THP1-defNLRP3 cells it was greater than 30 µM.

Regarding `CC1(O)CCN(CCNc2cc(N)nc3cc(-c4ccn[nH]4)sc23)CC1` [Compound 98, 1-(2-((5-amino-2-(1H-pyrazol-5-yl)thieno[3,2-b]pyridin-7-yl)amino)ethyl)-4-methylpiperidine-4-ol], the figures for the EC50 on hNLRP3 inflammasome and with THP1-defNLRP3 cells were 0.35 µM and greater than 30 µM, respectively.

As to `Nc1cc(NCCCO)c2sc(-c3ccncc3)cc2n1` [Compound 90, 3-((5-amino-2-(pyridin-4-yl)thieno[3,2-b]pyridin-7-yl)amino)-1-propanol], the EC50 is 6.03 µM on hNLRP3 inflammasome and greater than 30 µM with THP1-defNLRP3 cells.

As to `CC(CO)(CO)CNc1cc(N)nc2cc(-c3ccn[nH]3)sc12` [Compound 122], the values for the EC50 on hNLRP3 inflammasome and in the experiment with THP1-defNLRP3 cells were 0.6 µM and greater than 30 µM, respectively.

Take `COC1CCN(c2cc(N)nc3cc(-c4ccn[nH]4)sc23)C1` (centres unmarked) [Compound 180]: the EC50 on hNLRP3 inflammasome is 0.01 µM; with THP1-defNLRP3 cells, greater than 30 µM.
